In ChEMBL document CHEMBL1201862, “PubChem BioAssay data set” (2004):
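How tested: cells in 96-well plates exposed to compound for 48 hours at five concentrations. GI50: concentration for 50% inhibition of growth.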 Activity calls are given as the source filed them. Rule as the data show it: active = GI50 up to about 1.1 µM and inactive = higher.

Columns and labels:
Test in all cases: growth of human tumour cells (NCI), 48 h
786-0 = tested on: 786-0
A498 = tested on: A498
A549 = tested on: A549
ACHN = tested on: ACHN
CAKI-1 = tested on: CAKI-1
CCRF-CEM = tested on: CCRF-CEM
COLO 205 = tested on: COLO 205
DLD-1 = tested on: DLD-1
DMS-114 = tested on: DMS-114
DMS-273 = tested on: DMS-273
EKVX = tested on: EKVX
HCT-116 = tested on: HCT-116
HCT-15 = tested on: HCT-15
HL-60 = tested on: HL-60
HOP-18 = tested on: HOP-18
HOP-62 = tested on: HOP-62
HOP-92 = tested on: HOP-92
HT-29 = tested on: HT-29
IGROV-1 = tested on: IGROV-1
K562 = tested on: K562
KM-20L2 = tested on: KM-20L2
KM12 = tested on: KM12
LOX IMVI = tested on: LOX IMVI
LXFL 529 = tested on: LXFL 529
M14 = tested on: M14
M19-MEL = tested on: M19-MEL
MOLT-4 = tested on: MOLT-4
Malme-3M = tested on: Malme-3M
NCI-H226 = tested on: NCI-H226
NCI-H23 = tested on: NCI-H23
NCI-H460 = tested on: NCI-H460
NCI-H522 = tested on: NCI-H522
OVCAR-3 = tested on: OVCAR-3
OVCAR-4 = tested on: OVCAR-4
OVCAR-5 = tested on: OVCAR-5
OVCAR-8 = tested on: OVCAR-8
RPMI-8226 = tested on: RPMI-8226
RXF 393 = tested on: RXF 393
SF-268 = tested on: SF-268
SF-295 = tested on: SF-295
SF-539 = tested on: SF-539
SK-MEL-28 = tested on: SK-MEL-28
SK-MEL-2 = tested on: SK-MEL-2
SK-MEL-5 = tested on: SK-MEL-5
SK-OV-3 = tested on: SK-OV-3
SN12C = tested on: SN12C
SNB-19 = tested on: SNB-19
SNB-75 = tested on: SNB-75
SNB-78 = tested on: SNB-78
SW-620 = tested on: SW-620
TK-10 = tested on: TK-10
U-251 = tested on: U-251
UACC-257 = tested on: UACC-257
UACC-62 = tested on: UACC-62
UO-31 = tested on: UO-31
XF498 = tested on: XF498
HCC 2998 = tested on: HCC 2998

Measured: GI50

O=c1[nH]c(Br)nc2c(N3CCCCC3)c[nH]c12
inactive: 786-0 > 100 µM | A498 > 100 µM | A549 > 100 µM | ACHN > 100 µM | CAKI-1 > 100 µM | CCRF-CEM > 100 µM | COLO 205 > 100 µM | DLD-1 > 100 µM | DMS-114 > 100 µM | DMS-273 > 100 µM | EKVX > 100 µM | HCT-116 > 100 µM | HL-60 > 100 µM | HOP-18 > 100 µM | HOP-62 > 100 µM | HOP-92 > 100 µM | HT-29 > 100 µM | IGROV-1 > 100 µM | K562 > 100 µM | KM-20L2 > 100 µM | KM12 > 100 µM | LOX IMVI > 100 µM | LXFL 529 > 100 µM | M14 > 100 µM | M19-MEL > 100 µM | MOLT-4 29.5 µM | Malme-3M > 100 µM | NCI-H226 > 100 µM | NCI-H23 > 100 µM | NCI-H460 > 100 µM | NCI-H522 28.3 µM | OVCAR-3 > 100 µM | OVCAR-4 > 100 µM | OVCAR-5 > 100 µM | OVCAR-8 > 100 µM | RPMI-8226 > 100 µM | RXF 393 > 100 µM | SF-268 > 100 µM | SF-295 > 100 µM | SF-539 > 100 µM | SK-MEL-28 > 100 µM | SK-MEL-2 > 100 µM | SK-MEL-5 > 100 µM | SK-OV-3 > 100 µM | SN12C > 100 µM | SNB-19 > 100 µM | SNB-75 > 100 µM | SNB-78 > 100 µM | SW-620 > 100 µM | TK-10 > 100 µM | U-251 > 100 µM | UACC-257 > 100 µM | UACC-62 > 100 µM | UO-31 > 100 µM | XF498 > 100 µM
> 100 µM: HCT-15

Cc1ccccc1N(CC(=O)O)S(=O)(=O)c1ccccc1
inactive: 786-0 > 100 µM | A498 > 100 µM | A549 > 100 µM | ACHN > 100 µM | CAKI-1 > 100 µM | CCRF-CEM > 100 µM | COLO 205 > 100 µM | DLD-1 > 100 µM | DMS-273 > 100 µM | EKVX > 100 µM | HCC 2998 > 100 µM | HL-60 > 100 µM | HOP-18 > 100 µM | HOP-92 > 100 µM | HT-29 > 100 µM | IGROV-1 > 100 µM | K562 > 100 µM | KM-20L2 > 100 µM | KM12 > 100 µM | LOX IMVI > 100 µM | LXFL 529 > 100 µM | M14 > 100 µM | M19-MEL > 100 µM | MOLT-4 > 100 µM | Malme-3M > 100 µM | NCI-H226 > 100 µM | NCI-H23 > 100 µM | NCI-H460 > 100 µM | NCI-H522 > 100 µM | OVCAR-3 > 100 µM | OVCAR-4 > 100 µM | OVCAR-5 > 100 µM | OVCAR-8 > 100 µM | RPMI-8226 > 100 µM | RXF 393 > 100 µM | SF-268 > 100 µM | SF-295 > 100 µM | SF-539 > 100 µM | SK-MEL-28 > 100 µM | SK-MEL-2 > 100 µM | SK-MEL-5 > 100 µM | SK-OV-3 > 100 µM | SN12C > 100 µM | SNB-19 > 100 µM | SNB-75 > 100 µM | SW-620 > 100 µM | TK-10 > 100 µM | U-251 > 100 µM | UACC-257 > 100 µM | UACC-62 > 100 µM | UO-31 > 100 µM | XF498 > 100 µM
> 100 µM: HCT-15
